This is an account of results in the NIST ThermoML archive (doi:10.1016/j.jct.2004.07.006).

A short description of the series: mn = molality of the nth substance listed, in mol/kg. The conditions noted are these: 298.15 K, 101.33 kPa, Liquid.

The structures appear in SMILES notation. ± gives the expanded uncertainty stated by the source.

Take `NCC(=O)NCC(=O)O` [glycylglycine] + O: the viscosity is 0.9265 ± 0.03 mPa·s (m1 = 0.0995), 0.9265 ± 0.03 mPa·s (m1 = 0.0998), 1.062 ± 0.034 mPa·s (m1 = 0.5004) and 1.145 ± 0.036 mPa·s (m1 = 0.7502).
With `NCC(=O)O` [2-aminoacetic acid] + O, the viscosity runs as follows: (m1 = 0.4993) 0.9561 ± 0.031 mPa·s; (m1 = 0.7501) 0.9914 ± 0.032 mPa·s; (m1 = 1) 1.028 ± 0.033 mPa·s; (m1 = 1.499) 1.106 ± 0.035 mPa·s; (m1 = 1.5) 1.106 ± 0.035 mPa·s; (m1 = 2) 1.189 ± 0.037 mPa·s.
Consider `C[C@H](N)C(=O)O` [(S)-2-aminopropanoic acid] + O, for which the viscosity reads like this: (m1 = 0.1002) 0.9179 ± 0.03 mPa·s; (m1 = 0.4992) 1.017 ± 0.032 mPa·s; (m1 = 0.7503) 1.08 ± 0.034 mPa·s; (m1 = 0.9992) 1.152 ± 0.036 mPa·s.

Usually viscosity stands for the internal friction of a fluid under shear.
